Assay: Human HepG2 cell viability assay in 384 well format
Assay type: toxicity, cell-based
Parameters: dose 125 nL, time 70.5 hour; cytotoxicity at 70.5 h: concentration not given beside the values
Conditions: HepG2 cells, read-out: Inhibition

Structure (SMILES) | cytotoxicity at 70.5 h
CNC(=O)C(C)(C)NC(=O)c1cc(COc2cccc(C(C)=O)c2)[nH]n1 | -6.29%
Cc1cccc(OC2CCN(Cc3ncc[nH]3)CC2)c1 | 15.5%
Fc1ccccc1C(CNc1ccncn1)N1CCCC1 (stereo unspecified) | -8.28%
Cc1ncsc1CCN(C)Cc1cc2n(n1)CCN(S(C)(=O)=O)C2 | -6.95%
CCc1nc(CN(C)Cc2nc(-c3ccccc3Cl)oc2C)no1 | -14.3%
COCCN(C)C[C@@H]1CN(C(=O)c2c(F)ccc(OC)c2F)C[C@@H]1CO | 47.7%
O=C(CSc1ccccn1)N1CCN(CCO)[C@@H]2CS(=O)(=O)C[C@@H]21 | 2.3%
CC(C)[C@@H]1CN(C(=O)CN(C)Cc2ccccc2)C[C@H]1C(=O)O | -6.53%
COc1ccccc1OC1CCN(C(=O)CCCn2ccnc2)CC1 | -6.19%
CCN(CC1CCOCC1)C(=O)Cn1cccc(C(F)(F)F)c1=O | -7.19%
CSCc1noc(CNC(=O)[C@H]2CNC[C@@H](C(=O)N3CCCC3)C2)n1 | -14.4%
CN(Cc1cccc2cnccc12)C(=O)CCc1n[nH]c2c1CCCC2 | -9.31%
CC(C)c1ncc(-c2cc(C3CCC3)nc(N)c2C#N)cn1 | -8.31%
Fc1cnc(N2CCN(Cc3ccc(-c4cc[nH]n4)o3)CC2)nc1 | -3.42%
Cc1nn(C)c(Oc2ccc(Cl)cc2)c1CN1CCOC(CN)C1 (stereo unspecified) | -2.25%
O=C(c1cc[nH]n1)N1CCC(c2nccn2Cc2ccncc2)CC1 | 0.529%
CC(C)CN1C(=O)CC[C@H]2CN(C(=O)c3ncc[nH]3)CC[C@H]21 | -0.867%
CO[C@@]1(C)C[C@@H](O)C12CCN(C(=O)c1ccccc1C(C)=O)CC2 | -7.26%
C=C(C)COc1ccccc1NC(=O)N1CCCCC1CO (stereo unspecified) | 4.81%
COC(=O)[C@H](CSC)Nc1nc(C2CCCC2)nc2c1cnn2C | -8.48%
COC(C)(C)CC(C)NCc1cc(-c2ccco2)on1 (stereo unspecified) | -11.4%

Structure (SMILES) | cytotoxicity at 70.5 h
CCC[C@H]1CN(S(=O)(=O)N(C)Cc2ccccc2)C[C@@H]1N | 1.2%
NC(=O)c1ccnc(N2CCCC(CO)(Cc3ccccc3)C2)c1 (stereo unspecified) | -5.88%
Nc1nc2c(c(NCC(c3cccnc3)N3CCOCC3)n1)CCCC2 (stereo unspecified) | -12.1%
Cc1ocnc1C(=O)N1CCN(C(=O)CC(C)C)[C@@H]2CS(=O)(=O)C[C@@H]21 | 31.4%
COc1cc(CNc2ccc(C)c(Cl)c2)ccc1OCC(N)=O | -11.9%
O=C(NCCC1COc2ccccc2O1)c1ccc(-c2cn[nH]c2)nc1 (stereo unspecified) | 4.75%
O=C1CN(c2cc(-c3ccccc3F)nc3ccnn23)CCCN1 | -14.6%
CCCc1nc(CN(CC)C(=O)c2onc3ccccc23)no1 | 17%
CCc1nc(C)c(C(=O)NCC2COc3cc(OC)ccc3C2)o1 (stereo unspecified) | 42.6%
Cc1ccc([C@H]2CN(C(C)C)C[C@@H]2NS(=O)(=O)N2CCOCC2)o1 | -5.29%
OC1(CN2CCCC2)COCCN(c2nccs2)C1 (stereo unspecified) | 37.8%
COc1ccc(CN2C[C@@H](CN(C)C)[C@@H](CO)C2)c(Cl)c1OC | -7.01%
Cc1nccc(N[C@H]2CN(CC(C)(C)N3CCOCC3)C[C@@H]2C2CC2)n1 | 20.2%
CC(C)c1nc(C2CCCN(C(=O)CCCn3cccn3)C2)no1 (stereo unspecified) | -4.14%
Fc1ccc(-c2nnc(CN3CCCC3Cn3cccn3)o2)cc1 (stereo unspecified) | -19.8%
Clc1ccccc1-c1nnc(CN2CCCC2Cn2cncn2)o1 (stereo unspecified) | -2.55%
CCC(O)CN1CCN(C(=O)c2cc3ccccc3n2CC)CC1 (stereo unspecified) | 12.7%
CC(C)OCCCNC(=O)CS(=O)(=O)Cc1ccc(C(C)C)cc1 | -0.615%
CC(C)OCCCNC(=O)CS(=O)(=O)Cc1ccc(C(C)(C)C)cc1 | -5.34%
CC(C)CS(=O)(=O)CC(=O)NC1CCCCNC1=O (stereo unspecified) | -7.58%
CCN(CC)S(=O)(=O)N(CC)Cc1ccc2c(c1)OCCO2 | -10.6%

Structure (SMILES) | cytotoxicity at 70.5 h
CCC(CC)c1nnc(NC(=O)NC(C)Cn2cccn2)s1 (stereo unspecified) | 12.3%
CN(C)c1ncccc1CNC(=O)NCc1ccc(Cl)s1 | -10.4%
Cc1nnc(NC(=O)NC(C)Cn2cccn2)s1 (stereo unspecified) | -7.53%
CC(NC(=O)NCc1cccs1)c1ccc2c(c1)CCC(=O)N2 (stereo unspecified) | -4.6%
CN(C)c1ncccc1CNC(=O)NCc1cccs1 | 1.41%
COC(=O)C(NC(=O)CCOC(C)C)c1cc(F)ccc1F (stereo unspecified) | 18.1%
COC(=O)C(NC(=O)C1CC1)c1cc(F)ccc1F (stereo unspecified) | -0.233%
CCOCC(O)CN1CCN(C(=O)c2ccccc2F)CC1 (stereo unspecified) | -1.86%
CCNc1cc2c(nn1)CCN(C(=O)c1cccc3c1OCO3)C2 | 3.22%
CNc1cc2c(nn1)CCN(C(=O)c1ccc3c(c1)OCO3)C2 | -8.95%
Nc1cc2c(nn1)CCN(C(=O)c1cccc3c1OCO3)C2 | 2.4%
Cc1cnn(CCC(=O)N2CCCC(c3noc(C)n3)C2)c1 (stereo unspecified) | 1.71%
O=C(CCN1CCOC(CNc2cccnn2)C1)NC1CCCCC1 (stereo unspecified) | 11.1%
NC(=O)C1CCN(C(=O)c2cccn2Cc2cccs2)CC1 | -4.99%
CC(NC(=O)NCCS(C)(=O)=O)c1ccc2c(c1)CCC(=O)N2 (stereo unspecified) | 2.87%
Cc1nc(C)c(CN2CCC(N(C)Cc3noc(C4CC4)n3)C2)s1 (stereo unspecified) | 21.6%
Cc1csc(C2CCCCN2C(=O)c2cn[nH]c2C)n1 (stereo unspecified) | 16.7%
CCc1cnc(CN2CCC(N(C)Cc3noc(C)n3)C2)o1 (stereo unspecified) | 17%
Cc1nn(C)c(C)c1C1CCCN1C(=O)CCCNc1ncccn1 (stereo unspecified) | -8.51%
CNS(=O)(=O)c1cccc(C(=O)N(C)Cc2ccsc2)c1 | -7.55%
Cc1nn(C)c(C)c1C1CCCN1C(=O)CCCc1ccccn1 (stereo unspecified) | -4.63%

Structure (SMILES) | cytotoxicity at 70.5 h
CC(=O)NCc1ccc(C(=O)N2CCCC2c2cnn(C)c2)cc1 (stereo unspecified) | -6.89%
CN(Cc1ccccc1)C(=O)CN1CCCC(Cn2cncn2)C1 (stereo unspecified) | -7.31%
COc1ccc(CCNC(=O)N2CCCC(c3nncn3C)C2)cc1 (stereo unspecified) | -4.56%
Cc1nc(CN(C)C2CCN(Cc3cnc(C)s3)C2)no1 (stereo unspecified) | -3.46%
Cc1nnc(NC(=O)NCc2ccc(F)cc2)s1 | -1.95%
Cc1nnc(NC(=O)NCc2ccc(N3CCC(C)CC3)nc2)s1 | -8.92%
Cc1nnc(NC(=O)NCc2ccc(N3CCOCC3)nc2)s1 | -5.81%
CCN(CC)CCn1c(NC(=O)c2scnc2C)nc2ccccc21 | 5.56%
Cn1cnnc1C1CCCN(C(=O)NCCn2ccnc2)C1 (stereo unspecified) | -10.4%
CCOCCCn1c(NC(=O)c2ccnc(C)n2)nc2ccccc21 | 25.9%
CN(Cc1ccco1)C(=O)CN1CCCC1Cn1cncn1 (stereo unspecified) | 3.18%
Cc1ccc(CN(C)C(=O)CN2CCCC(Cn3cncn3)C2)cc1 (stereo unspecified) | 22.9%
Cc1csc(C2CCCCN2C(=O)c2cc(C3CC3)[nH]n2)n1 (stereo unspecified) | -2.5%
CC(=O)N1CCCC1C(=O)NCCOc1c(C)cccc1C (stereo unspecified) | -1.77%
CCc1nc2n(n1)CC(NCc1cc(OC)c3c(c1)OCO3)CC2 (stereo unspecified) | 1.22%
CN(CC(C)(C)O)C1CCCN(Cc2noc(C3CC3)n2)C1 (stereo unspecified) | 41.7%
Cc1cnn(CC(C)NCC(=O)NCCOc2ccccc2)c1 (stereo unspecified) | 11.7%
Cc1cnn(CCNCC(=O)NCCOc2ccc(F)cc2)c1 | -9.5%

— ChEMBL document CHEMBL3507680, “University of Dundee, Gates Library screen for HepG2 cell viability”
